Data published in EPA's ToxValDB 9.5 (doi:10.2903/j.efsa.2018.5146).
Values after ≈ are worked out from the molar mass of the structure shown.

Legend:
[1] = chronic; duration: 133 days; other
Apis mellifera = conditions: acute, mortality
Folsomia candida = conditions: chronic/long-term; reproduction
Mus musculus = conditions: organ weight
Oncorhynchus mykiss = conditions: acute; duration: 96 hours; mortality
Rattus norvegicus = conditions: acute; oral; mortality
Tagia sp. = conditions: chronic/long-term; reproduction
Aphidius rhopalosiphi = assay: LR50; higher = less toxic; conditions: acute; mortality

SMILES: COc1ccnc(C(=O)N[C@H]2COC(=O)[C@H](Cc3ccccc3)[C@@H](OC(=O)C(C)C)[C@H](C)OC2=O)c1OCOC(=O)C(C)C [Fenpicoxamid]
- NOEC [1]: 0.0001 mg/L
- LD50 (Apis mellifera; dermal): > 202 µg/piece
- LD50 (Apis mellifera; oral, unspecified): > 303 µg/piece
- LD50 (Colinus virginianus; acute, oral, mortality): > 2000 mg/kg-day
- NOEC (Colinus virginianus; reproduction developmental): 12.1 mg/kg-day
- NOEC (Folsomia candida): 3.97 mg/kg
- NOAEL (Mus musculus; chronic, duration: 18 months): 5.27 mg/kg-day
- NOAEL (Mus musculus; subchronic, duration: 90 days, oral): 39.6 mg/kg-day
- LC50 (Oncorhynchus mykiss): 1.1 µg/mL (≈ 1.79 µM)
- NOAEL (Oryctolagus sp.; chronic, New Zealand, no effects): 495 mg/kg-day
- NOAEL (Oryctolagus sp.; reproduction developmental, reproduction): 177 mg/kg-day
- LD50 (Rattus norvegicus): > 2000 mg/kg-day
- NOEC (Tagia sp.): 9.93 mg/kg
- LR50 (Aphidius rhopalosiphi): > 129 g/ha
